Laboratory results as given in ChEMBL document CHEMBL1141305, “Daphnipaxianines A-D, alkaloids from Daphniphyllum paxianum” (J Nat Prod, 2007).
The source made the active and inactive calls.

Key:
Format in all cases: functional, cell-based
HCT-116 [1] = assay: Cytotoxicity against human Bax deficient HCT116 cells
HCT-116 [2] = assay: Cytotoxicity against human HCT116 cells
MEF = assay: Cytotoxicity against mouse Bax and Bak deficient MEF cells

Measured: Activity

COC(=O)[C@@H]1C[C@]23CN4CC(CCC5(CCC1C52)C4)[C@@]31CC[C@](OC)(C(C)C)OC1 (some centres not stated)
inactive: HCT-116 [1] | HCT-116 [2] | MEF

C[C@@H]1CN2C[C@H]3CCC4=C5[C@](O)(CC4)CC[C@@]54C(=O)[C@@H]1C[C@@H]2[C@@]34C
inactive: HCT-116 [1] | HCT-116 [2] | MEF

C[C@@H]1CN2C[C@H]3CC[C@]4(O)CC(=O)C5=C4[C@@]4(CC5)C(=O)[C@@H]1C[C@@H]2[C@@]34C
inactive: HCT-116 [1] | HCT-116 [2] | MEF

C[C@@H]1CN2C[C@H]3CC[C@@]4(O)CC(=O)C5=C4[C@@]4(CC5)C(=O)[C@@H]1C[C@@H]2[C@@]34C
inactive: HCT-116 [1] | HCT-116 [2] | MEF
